The values below come from paper PMC5522078, “Discovery and characterization of small molecules targeting the DNA-binding ETS domain of ERG in prostate cancer” (Oncotarget, 2017).

In one data set the target is T1, ERG (Homo sapiens, UniProt P11308).
T1 construct: VCaP (endogenous overexpression); endogenous in cells; host or cells: VCaP (whole cells for A2 and A17; nuclear extract for A16)
T1 sequence (P11308 33-479 limits assumed): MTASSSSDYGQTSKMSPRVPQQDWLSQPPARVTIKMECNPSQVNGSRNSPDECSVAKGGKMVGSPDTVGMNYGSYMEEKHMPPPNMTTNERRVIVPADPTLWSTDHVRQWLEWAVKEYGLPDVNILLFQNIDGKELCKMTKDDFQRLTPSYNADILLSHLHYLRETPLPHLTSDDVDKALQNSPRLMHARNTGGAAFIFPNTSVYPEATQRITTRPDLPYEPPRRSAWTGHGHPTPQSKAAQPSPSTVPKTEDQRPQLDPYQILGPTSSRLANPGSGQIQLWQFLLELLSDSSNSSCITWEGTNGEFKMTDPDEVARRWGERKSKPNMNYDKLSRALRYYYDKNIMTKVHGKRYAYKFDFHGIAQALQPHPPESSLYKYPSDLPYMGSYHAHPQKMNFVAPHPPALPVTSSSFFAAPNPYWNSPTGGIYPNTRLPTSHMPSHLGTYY
Nature of the data set: Dual reporter luciferase assay (pETS-luc) in VCaP cells. It counts as cell-based. The conditions noted are these: 0.1-100 μM, 48 h treatment. How it is done:
All of the compounds selected from the virtual screening were tested in a luciferase-based ERG-responsive reporter assay, using two ERG-overexpressing cell lines, VCaP and PNT1B-ERG, previously developed in house. […] Data were normalized first to Renilla luciferase and then to the DMSO-media control on each plate, unless otherwise stated. Initial hit compounds were identified as those with an average normalized luciferase reading (firefly luciferase/Renilla luciferase readings) that is 60% or less of the average normalized luciferase reading of the DMSO-media control (i.e. 40% or more reduction of luciferase activity) at 10 μM. Representative example of raw Renilla luciferase readings presented in Supplementary Figure 9B. The luciferase assays were repeated for each lead compound under multiple concentrations (0.1 to 100 μM) to establish a dose-dependent response and an IC50 value. AR reporter assay was performed as previously described.

Data set [1] deals with PNT1B-ERG cells. Nature of the data set: MTS cell viability assay, PNT1B-ERG. It is filed as cell-based, human. The conditions noted are these: 72 h. How it is done: (§1) 3-(4,5-dimethylthiazol-2-yl)-5-(3-carboxymethoxyp henyl)-2-(4-sulfophenyl)-2H-tetrazolium, inner salt (MTS). Cells were seeded at a density of 3000 cells per well (except VCaP at 20,000/well) in 100 μL of appropriate media in 96 well culture dishes. Twenty four hours later, 100 μL of medium containing vehicle control or compounds. Each treatment was prepared in triplicate. After a 72 h treatment, cellular viability was assessed using CellTiter 96 ® Aqueous One Solution Cell Proliferation Assay reagent (Promega) according to the manufacturer's instructions. Values were normalized to the DMSO control.

Another data set deals with VCaP cells. Nature of the data set: MTS cell viability assay, VCaP. The conditions noted are these: 72 h. It counts as cell-based, human. How it is done: as §1
Background: Formazan colour is commonly taken as a measure of viable cells.

Data set [2] deals with PNT1B-ERG cells. The data set is described as follows: Real time growth assay (Incucyte confluence). It is filed as cell-based, human. The conditions noted are these: 1, 5 or 15 µM; 168 h. How it is done:
www.impactjournals.com/oncotarget/ Oncotarget Supplementary Materials
Discovery and characterization of small molecules targeting the DNA-binding ETS domain of ERG in prostate cancer […]
samples where less saturation of MS data is expected. This […]
and gives reasonable estimates when the use of MS […]
sulfoxide (DMSO) were diluted 1,000× into methanol
The (Gibco), then underwent APC BrdU Flow Kit protocol
Cells were analysed on a FACSCanto™
Data was analyzed using FlowJo
Eppendorf tubes. Saturated PBS samples were further software (TreeStar, USA). Biological replicates were diluted with an equal volume of PBS. Aliquots of these analysed statistically by Two-Way ANOVA. […]
the dark. Aliquots taken at later time points were vortex mixed for 1 h prior to sampling. MeOH and diluted PBS Proliferation/cell viability assay […]
were extracted with two volumes acetonitrile (ACN) and centrifuged at 20,000 g for 5 min.
After 24 h, plates were treated with vehicle control, […]
and a Quattro Premier (Waters).
2points/sec were collected with the PDA. The sampler expression datasets from PCa patients […]
represent the mean ± SEM of triplicate experiments. […]
post hoc test. […] The G0–G1 phase
Growth assay of PNT1B-ERG cells

A further data set deals with T2, ERG-ETS/DNA complex (Homo sapiens, UniProt P11308).
T2 construct: A pET28a plasmid encoding residues 307–400 of the ERG-ETS domain; His6 (cleaved yes); made in house; host or cells: E. coli BL21 (λDE3)
T2 sequence (P11308 307-400): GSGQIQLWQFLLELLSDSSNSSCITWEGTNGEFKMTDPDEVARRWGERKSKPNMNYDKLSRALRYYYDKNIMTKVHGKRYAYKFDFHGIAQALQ
Nature of the data set: EMSA competition, purified ERG-ETS domain and dsDNA. It counts as binding. The conditions noted are these: for Disruption of recombinant ERG-ETS/DNA complex formation: up to 8 mM. How it is done: To prepare the probe for the gel shift assay, equal amounts (200 nM) of Alexa-488 fluorophore-labeled DNAs ([NT] and its complement) were mixed, heated to 95°C for 30 minutes, and then slowly cooled to 25°C in several hours. […] The gel was scanned with Typhoon 9200 Imager equipped with blue laser to excite at 490 nm and fluorescence was measured at 520 nm. The scanned image was analyzed with Image J [48]. […] The result of this initial study was used to set the molar ratio of ERG-ETS domain:DNA in subsequent competition assays with VPC-18005. […] The data were fit to the equation for competitive binding, fb,i = [ERG]/([ERG] + KD{1 + [VPC-18005]i/KI}), where KI is the inhibitor dissociation constant and the fraction bound, fb,i, was calculated the intensity of the bound DNA band at each titration point relative to that without added VPC-18005. A control experiment was carried out by titrating with equivalent quantities of DMSO.
Background: A gel shift assay detects complexes by their altered migration in electrophoresis.

The subject of data set [3] is PNT1B-ERG cells. Nature of the data set: Real time cell migration (xCELLigence), PNT1B cells. It counts as cell-based, human. Conditions: 5 μM. How it is done:
Cell migration was monitored using CIM-16 migration plates via the xCELLigence platform (ACEA). FBS-supplemented media (160 μL) was added to the lower chamber of the plate and incubated at RT for 30 min. The upper chamber was then mounted and 30 μL of serum free media (SFM) was added to each well and left to equilibrate in the incubator for 1 h at 37°C. After the incubation, a background reading was taken for each well. […] Real time readings of cell index values were recorded initially every 5 min until the end of the experiment (48 hr).

For the next data set, the system named is PNT1B-ERG spheroids. Nature of the data set: 3D spheroid invasion assay. It is filed as cell-based, human. Conditions: compared to vehicle control. How it is done:
3D Spheroid BME Cell Invasion Assay (Trevigen) was performed as per manufacturer's instructions. […] Spheroids were then incubated at 37°C for 3 to 7 days, and photographed using Zeiss AxioObserver Z1 microscope in each well on the day of invasion mix addition and every two days following. Spheroids were retreated with 50 μL of vehicle control or compound after 72 hr.

The test system of the next data set is zebrafish embryos. The data set is described as follows: Compound toxicity to zebrafish embryos. It is filed as in vivo.

In turn, `CC(C)c1ccc(C=N/N=C2\NC(=O)[C@@H](CC(=O)O)S2)cc1` (stereo in doubt) [VPC-18005, 2-((Z)-2-(((Z)-4-isopropylbenzylidene)hydrazono)-4-oxothiazolidin-5-yl)acetic acid] showed an IC50 against ERG of 6 µM. Besides, the “Effect on cell viability (MTS), PNT1B-ERG” value in the data set on PNT1B-ERG cells [1] (0.2–25 μM) is reported as “did not decrease viability”. Moreover, the “Effect on cell viability (MTS), VCaP” value in the data set with VCaP cells (0.2–25 μM) was “did not decrease viability”. The “Effect on proliferation / cell growth (real time cell analysis)” value in the data set with PNT1B-ERG cells [2] was “did not suppress proliferation or induce cell death”. Moreover, on ERG-ETS/DNA complex (4 nM ERG-ETS domain, 1 nM dsDNA, read-out: KI, disruption of ERG-ETS/DNA complex formation), the Ki is around 250 µM. In addition, at ERG-ETS/DNA complex, the “Disruption of recombinant ERG-ETS/DNA complex formation” value is “dose-dependent disruption”. Further, the “Rate of migration of PNT1B-ERG cells” value in the data set with PNT1B-ERG cells [3] (24 h exposure, relative to vehicle) was “significantly reduced”. The “Rate of spheroid invasion between day 2 and 6” value in the data set with PNT1B-ERG spheroids is listed as “significantly reduced”. Also, the “Concentration at which embryos remained viable” value with zebrafish embryos (72 h) is “up to 50 μM”.

As for `COc1ccc(C(=O)CC2(O)C(=O)Nc3c(Cl)ccc(Cl)c32)cc1` (centres unmarked) [YK-4-279, reference compound], the half-inhibitory concentration (IC50) against ERG stood at 16 µM. In the data set with PNT1B-ERG cells [1], the “Doses with inhibition of cell viability (MTS), PNT1B-ERG” value was at least 5 µM. For the same compound, the “Doses with inhibition of cell viability (MTS), VCaP” value in the data set with VCaP cells was at least 5 µM. Besides, in the data set on PNT1B-ERG cells [2], the “Effect on proliferation / cell growth (real time cell analysis)” value is “dose-dependent effect”. Moreover, the “Disruption of recombinant ERG-ETS/DNA complex formation” value at ERG-ETS/DNA complex was “did not disrupt binding”. In addition, in the data set on PNT1B-ERG cells [3] (PNT1B-MOCK and PNT1B-ERG cells), the “Cytotoxicity in migration assay” value was “cytotoxicity in both cell lines”. Besides, in the data set with PNT1B-ERG spheroids, the “Rate of spheroid invasion between day 2 and 6” value is on record as “significantly reduced”. The “Concentrations at which embryos exhibited toxicity” value with zebrafish embryos was above 10 µM.

For orientation: IC50 means the concentration needed to halve the response being measured. Read a high IC50 as lower potency.
